Test results: the Kinase Knowledgebase extract (Sharma et al. 2016)

The molecules below were run against CDK2 (UniProt P24941) (assay: Enzyme Assay).

IC50, 0.1 to 100 nM:
Brc1cnn2c(NCc3cccnc3)cc(C3CCOCC3)nc12
[O-][n+]1cccc(CNc2cc(C3CCCCC3)nc3c(Br)cnn23)c1
CC(C)[C@H](CO)Nc1cc(NCc2ccc[n+]([O-])c2)n2ncc(Br)c2n1
Nc1ncc(CNc2cc(C3CCCNC3)nc3c(Br)cnn23)cn1 (configuration not stated)
CS(=O)(=O)N1CCCC(c2cc(NCc3cccnc3)n3ncc(Br)c3n2)C1 (configuration not stated)
[O-][n+]1cccc(CNc2cc(-c3ccccc3)nc3c(Br)cnn23)c1
Oc1cc(CNc2cc(C3CCCCC3)nc3c(Br)cnn23)ccn1
N[C@H]1CC[C@H](Nc2cc(NCc3cccnc3)n3ncc(Br)c3n2)CC1
[O-][n+]1cccc(CNc2cc(C3CCNCC3)nc3c(Br)cnn23)c1
[O-][n+]1cccc(CNc2cc(-c3ccccc3Cl)nc3c(Br)cnn23)c1
NC(=O)N1CCC(c2cc(NCc3cccnc3)n3ncc(Br)c3n2)CC1
COc1ccc(CNc2cc(-c3ccccc3F)nc3c(Br)cnn23)c[n+]1[O-]
CC(=O)N1CCC(c2cc(NCc3cccnc3)n3ncc(Br)c3n2)CC1
CCc1cnn2c(NCc3ccc[n+]([O-])c3)cc(-c3ccccc3)nc12
Cn1cnc2cc(CNc3cc(-c4ccccc4)nc4c(Br)cnn34)ccc21
Brc1cnn2c(NCc3cccnc3)cc(C3CCCNC3)nc12 (configuration not stated)
Cc1ccccc1-c1cc(NCc2ccc[n+]([O-])c2)n2ncc(Br)c2n1
[O-][n+]1cccc(CNc2cc(-c3cccs3)nc3c(Br)cnn23)c1
[O-][n+]1cccc(CNc2cc(-c3ccc(Cl)cc3)nc3c(Br)cnn23)c1
NC(=O)N1CCCC(c2cc(NCc3cccnc3)n3ncc(Br)c3n2)C1 (configuration not stated)
CC(C)[C@@H](CO)Nc1cc(NCc2ccc[n+]([O-])c2)n2ncc(Br)c2n1
OC[C@H]1CCCC[C@H]1Nc1cc(NCc2cccnc2)n2ncc(Br)c2n1
OCC1CCCCN1c1cc(NCc2cccnc2)n2ncc(Br)c2n1 (configuration not stated)
CC(C)(O)[C@H]1CCCC[C@H]1c1cc(NCc2cccnc2)n2ncc(Br)c2n1
[O-][n+]1cccc(CNc2cc(N3CCC[C@H]3CO)nc3c(Br)cnn23)c1
CCc1cnn2c(NCc3ccc(OC)[n+]([O-])c3)cc(-c3ccccc3F)nc12
[O-][n+]1cccc(CNc2cc(C3CCOCC3)nc3c(Br)cnn23)c1
Brc1cnn2c(NCc3cccnc3)cc(C3CCCCC3)nc12
Brc1cnn2c(NCc3cccnc3)cc(-c3ccccc3)nc12
Brc1cnn2c(NCc3ccc(-c4csnn4)cc3)cc(C3CCNCC3)nc12
COc1c(Cl)cc(CNc2cc(-c3ccccc3)nc3c(Br)cnn23)c[n+]1[O-]
O=c1cc(CNc2cc(-c3ccccc3)nc3c(Br)cnn23)cc[nH]1
CNC(=O)c1ccc(CNc2cc(-c3ccccc3F)nc3c(Br)cnn23)cc1
CC(C)c1cc(NCc2ccc[n+]([O-])c2)n2ncc(Br)c2n1
O=c1ccc(CNc2cc(C3CCCCC3)nc3c(Br)cnn23)c[nH]1
Brc1cnn2c(NCc3cccnc3)cc(-c3ccco3)nc12
CC(C)Oc1ccc(CNc2cc(-c3ccccc3F)nc3c(Br)cnn23)c[n+]1[O-]
O=C(C1CC1)N1CCC(c2cc(NCc3cccnc3)n3ncc(Br)c3n2)CC1
OCCC1CCCCN1c1cc(NCc2cccnc2)n2ncc(Br)c2n1 (configuration not stated)
CC(C)(O)[C@@H]1CCCN1c1cc(NCc2cccnc2)n2ncc(Br)c2n1
OCC1(Nc2cc(NCc3cccnc3)n3ncc(Br)c3n2)CCCC1
[O-][n+]1cc(CNc2cc(-c3ccccc3)nc3c(Br)cnn23)ccc1OCC(F)(F)F
CC1(C)[C@@H]2[C@@H](CO)N(c3cc(NCc4cccnc4)n4ncc(Br)c4n3)C[C@@H]21
O=c1ccc(CNc2cc(-c3ccccc3F)nc3c(Br)cnn23)c[nH]1
CC(C)(CO)Nc1cc(NCc2cccnc2)n2ncc(Br)c2n1
CCc1cnn2c(NCc3cccnc3)cc(-c3ccccc3)nc12
OCC[C@@H]1CCCN1c1cc(NCc2cccnc2)n2ncc(Br)c2n1
CCOc1ccc(CNc2cc(-c3ccccc3)nc3c(Br)cnn23)c[n+]1[O-]
CCc1cnn2c(NCc3ccc[n+]([O-])c3)cc(-c3ccccc3F)nc12
Brc1cnn2c(NCc3ccc4[nH]cnc4c3)cc(C3CCNCC3)nc12
CCc1cnn2c(NCc3ccc[n+]([O-])c3)cc(C3CCCCC3)nc12
CS(=O)(=O)N1CCC(c2cc(NCc3cccnc3)n3ncc(Br)c3n2)CC1
Brc1cnn2c(NCc3cccnc3)cc(C3CCNCC3)nc12
Fc1ccccc1-c1cc(NCc2ccc3[nH]cnc3c2)n2ncc(Br)c2n1
OC[C@H]1CCCC[C@H]1c1cc(NCc2cccnc2)n2ncc(Br)c2n1
[O-][n+]1cccc(CNc2cc(-c3ccco3)nc3c(Br)cnn23)c1
CC(C)(O)[C@@H]1CCCN1c1cc(NCc2ccc[n+]([O-])c2)n2ncc(Br)c2n1
CCc1cnn2c(NCc3ccnc(O)c3)cc(-c3ccccc3)nc12
Brc1cnn2c(NCc3ccc4[nH]cnc4c3)cc(C3CCCCC3)nc12
CC(=O)N1CCCC(c2cc(NCc3cccnc3)n3ncc(Br)c3n2)C1 (configuration not stated)
O=c1ccc(CNc2cc(-c3ccccc3)nc3c(Br)cnn23)c[nH]1
[O-][n+]1cccc(CNc2cc(-c3ccccc3F)nc3c(Br)cnn23)c1
